Laboratory results taken from patent publication US20120122991A1, “METHOD FOR TREATING CANCER BY INCREASING AMP-ACTIVATED KINASE ACTIVITY” (Dana-Farber Cancer Institute, Inc., priority 2003, published 2012).

Columns and labels:
[1] = tested on: tuberin; test: Tuberin mobility shift on SDS-PAGE in transfected HeLa cells; format: cell-based, human
Text: FIG. 7A: In vitro kinase assay using FLAG-tagged tuberin as a substrate for LKB1-activated AMPK. Purified E. coli produced recombinant AMPK was activated by an in vitro kinase assay with wild-type LKB1, kinase-dead LKB1, or untransfected control immunoprecipitates then isolated and assayed for its ability to phosphorylate tuberin in vitro. FIG. 7B: Comparison of recombinant Akt-mediated tuberin phosphorylation in vitro to recombinant AMPK phosphorylation in vitro. Note that only AMPK-mediated phosphorylation induces a significant mobility shift in tuberin on SDS-PAGE. C: HeLa cells were co-transfected with FLAG-tagged tuberin, and empty vector or wild-type LKB1 and treated with 2 mM AICAR where indicated. Total cell lysates were then immunoblotted with anti-FLAG antisera to detect the introduced tuberin. Note the significant mobility shift induced by AICAR treatment of LKB1-expressing cells. […] FIG. 7D: HeLa cells were transfected with HA-tagged S6K1 and FLAG-tagged wild-type LKB1 along with empty vector, or dominant negative AMPK alpha1 (GST-tagged) or dominant negative AMPK alpha2 (myc tagged). Cells were treated with 2 mM AICAR for 2 h where indicated. HA-immunoprecipitates were immunoblotted with phospho-Thr389 S6K1 antisera to detect activated S6K1 and reprobed for total HA-S6K1 levels. […]

[2] = tested on: HeLa cells; test: Cell survival (MTT assay, phase contrast) of HeLa cells stably expressing vector, WT or KD LKB1; format: cell-based, human; conditions: 2.5 mM AICAR, within 8 h
Method: Results are representative of four independent experiments. Cell viability was determined following AICAR or UV expressed as a percentage of untreated controls. Cell viability quantified by MTT assays run in triplicate on indicated HeLa stable cell lines treated with 2.5 mM AICAR or 50 j/cm^2 UV for 8 h. Results are representative of two independent experiments.
Kinase Assays and Cellular Analysis: AMPK kinase activity was measured using the SAMS peptide as previously described (7). LKB1 phosphorylation of AMPK was carried out in kinase buffer (50 mM Tris pH 7.5, 10 mM MgCl2, 1 mM DTT, 100 μM ATP) for 20 mins at 30° C. For immunopreciptations of active LKB1 kinase, Flag-tagged LKB1 was co-transfected with an equimolar amount of STRAD expression plasmid into HT1080 cells and immunoprecipitated using M2-agarose (Sigma) 24 h post-transfection in NP40 lysis buffer26. Before kinase assays, immunoprecipitated LKB1 was washed 3× in lysis buffer then 2× in kinase buffer. Soluble MBP-AMPK was added at 5 μg per kinase reaction. […]
To determine if LKB1 can mediate a biological response to a stimulus that activates the AMPKK/AMPK cascade we investigated whether LKB1 might modulate cell death under circumstances where AMPK would be activated. […] The extent of cell survival conferred by LKB1 reconstitution in the HeLa cells was quantified by MTT assay (FIG. 5b,c).

How did the “tuberin mobility on SDS-PAGE” value ([1]; HeLa cells expressing wild-type LKB1, 2 mM AICAR) turn out when `NC(=O)c1ncn([C@@H]2O[C@H](CO)[C@@H](O)[C@H]2O)c1N` [AICAR, 5-aminoimidazole-4-carboxamide 1-β-D-ribofuranoside] was run?
The value was “significant reduction in tuberin mobility”.

What about the “tuberin mobility on SDS-PAGE” value ([1]; HeLa cells in the absence of LKB1 expression, AICAR) of the same compound?
Its value is “no effect on tuberin mobility”.

What about the cell death ([2]; vector control and kinase-dead LKB1 expressing HeLa cells) of the same compound?
Its cell death is “extensive cell death”.

What about the cell viability ([2]; wild-type LKB1 expressing HeLa cells) of the same compound?
Its cell viability is “nearly totally viable”.
